Assay [1] concerns DLD-1-cancer cells. To be noted: cited from earlier work.
For assay [2], the target named is T1, GST-tagged Tankyrase-1 (1023-1327 aa) (Homo sapiens, UniProt O95271).
T1 construct: GST-tagged Tankyrase-1 (1023-1327 aa)
Description: Tankyrase 1 autoparsylation assay (HTRF enzyme assay). The class given is biochemical. How it is done:
(§1) The autoparsylation assay was run in two steps: the enzymatic reaction in which GST-tagged Tankyrase-1, resp Tankyrase-2 transferred biotinylated ADP-ribose to itself from biotinylated NAD as co-substrate and the detection reaction where a time resolved FRET between cryptate labelled anti-GST bound to the GST tag of the enzyme and Xlent® labelled-streptavidin bound the biotin-parsylation residue was analysed. The autoparsylation activity was detectable directly via the increase in HTRF signal.
(§2) The autoparsylation assay was performed as 384-well HTRF® (Cisbio, Codolet, France) assay format in Greiner low volume nb 384-well microtiter plates and was used for high throughput screen. 250 nM GST-tagged Tankyrase-1 (1023-1327 aa), respectively about 250 nM GST-tagged Tankyrase-2 (873-1166 aa) and 5 μM bio-NAD (Biolog, Life science Inst., Bremen, Germany) as co-substrate were incubated in a total volume of 5 μl (50 mM HEPES, 4 mM Mg-chloride, 0.05% Pluronic F-68, 1.4 mM DTT, 0.5% DMSO, pH 7.7) in the absence or presence of the test compound (10 dilution concentrations) for 90 min at 30° C. The reaction was stopped by the addition of 1 μl 50 mM EDTA solution. 2 μl of the detection solution (1.6 μM SA-Xlent® (Cisbio, Codolet, France), 7.4 nM Anti-GST-K® (Eu-labelled anti-GST, Cisbio, Codolet, France) in 50 mM HEPES, 800 mM KF, 0.1% BSA, 20 mM EDTA, 0.1% CHAPS, pH 7.0) were added. After 1 h incubation at room temperature the HTRF was measured with an Envision multimode reader (Perkin Elmer LAS Germany GmbH) at excitation wavelength 340 nm (laser mode) and emission wavelengths 615 nm and 665 nm. The ratio of the emission signals was determined. The full value used was the inhibitor-free reaction. The pharmacological zero value used was XAV-939 (Tocris) in a final concentration of 5 μM. The inhibitory values (IC50) were determined using either the program Symyx Assay Explorer® or Condosseo® from GeneData.

The target of assay [3] is T2, GST-tagged Tankyrase-2 (873-1166 aa) (Homo sapiens, UniProt Q9H2K2).
T2 construct: GST-tagged Tankyrase-2 (873-1166 aa)
Description: Tankyrase 2 autoparsylation assay (HTRF enzyme assay). Format: biochemical. The method, then: as §1, §2

The target of assay [4] is T3, GST-tagged Tnks-1 (1023-1327 aa) (Homo sapiens, UniProt O95271).
T3 construct: GST-tagged Tnks-1 (1023-1327 aa, prepared in-house); made in house
Description: TNKS 1 activity ELISA (autoparsylation assay). The class given is biochemical. To be noted: read-out: IC50 tankyrase 1 (ELISA assay). The method, then:
(§3) Biochemical Activity Testing of TNKS 1 and 2: Activity ELISA (Autoparsylation Assay)
(§4) For analysis of autoparsylation activity of TNKS 1 and 2 an activity ELISA was performed: In the first step GST tagged TNKS was captured on a Glutathione coated plate. Then the activity assay with biotinylated NAD was performed in the absence/presence of the compounds. During the enzymatic reaction GST tagged TNKS transferred biotinylated ADP-ribose to itself from biotinylated NAD as co-substrate. For the detection streptavidin-HRP conjugate was added that bound to the biotinylated TNKS and was thereby captured to the plates. The amount of biotinylated resp autoparsylated TNKS was detected with a luminescence substrate for HRP. The level of the luminescence signal correlated directly with the amount of autoparsylated TNKS and therefore with activity of TNKS.
(§5) The activity ELISA was performed in 384 well Glutathione coated microtiter plates (Express capture Glutathione coated plate, Biocat, Heidelberg, Germany). The plates were pre-equilibrated with PBS. Then the plates were incubated with 50 μl 20 ng/well GST-tagged Tnks-1 (1023-1327 aa, prepared in-house), respectively GST-tagged Tnks-2 (873-1166 aa, prepared in-house) in assay buffer (50 mM HEPES, 4 mM Mg-chloride, 0.05% Pluronic F-68, 2 mM DTT, pH 7.7) overnight at 4° C. The plates were washed 3 times with PBS-Tween-20. The wells were blocked by incubation at room temperature for 20 minutes with 50 μl blocking buffer (PBS, 0.05% Tween-20, 0.5% BSA). Afterwards the plates were washed 3 times with PBS-Tween-20. The enzymatic reaction was performed in 50 μl reaction solution (50 mM HEPES, 4 mM Mg-chloride, 0.05% Pluronic F-68, 1.4 mM DTT, 0.5% DMSO, pH 7.7) with 10 μM bio-NAD (Biolog, Life science Inst., Bremen, Germany) as co-substrate in the absence or presence of the test compound (10 dilution concentrations) for 1 hour at 30° C. The reaction was stopped by 3 times washing with PBS-Tween-20. For the detection 50 μl of 20 ng/μl Streptavidin, HRP conjugate (MoBiTec, Göttingen, Germany) in PBS/0.05% Tween-20/0.01% BSA were added and the plates were incubated for 30 minutes at room temperature. After three times washing with PBS-Tween-20 50 μl of SuperSignal ELISA Femto Maximum sensitivity substrate solution (ThermoFisherScientific (Pierce), Bonn, Germany) were added. Following a 1 minute incubation at room temperature luminescence signals were measured with an Envision multimode reader (Perkin Elmer LAS Germany GmbH) at 700 nm. The full value used was the inhibitor-free reaction. The pharmacological zero value used was XAV-939 (Tocris) in a final concentration of 5 μM. The inhibitory values (IC50) were determined using either the program Symyx Assay Explorer® or Condosseo® from GeneData.
Background: ELISA stands for enzyme-linked immunosorbent assay.

Assay [5] concerns the target T4, GST-tagged Tnks-2 (873-1166 aa) (Homo sapiens, UniProt Q9H2K2).
T4 construct: GST-tagged Tnks-2 (873-1166 aa, prepared in-house); made in house
The experiment in a line: TNKS 2 activity ELISA (autoparsylation assay). Conditions: read-out: IC50 tankyrase 2 (ELISA assay). The class given is biochemical. The method, then: as §3, §4, §5

Assay [6] has as its target T5, His-tagged Parp-1 (Homo sapiens, UniProt P09874).
T5 construct: purchased Enzo Life Sciences GmbH, Lörrach, Germany
The experiment in a line: PARP-1 autoparsylation assay (HTRF). Format: biochemical. Conditions: read-out: IC50 PARP1. How it is done: Biochemical Activity Testing of PARP-1: Autoparsylation Assay
The autoparsylation assay was run in two steps: the enzymatic reaction in which His-tagged Parp-1 transferred biotinylated ADP-ribose/ADP-ribose to itself from biotinylated NAD/NAD as co-substrate and the detection reaction where a time resolved FRET between cryptate labelled anti-His antibody bound to the His tag of the enzyme and Xlent® labelled-streptavidin bound the biotin-parsylation residue was analysed. The autoparsylation activity was detectable directly via the increase in HTRF signal.
The autoparsylation assay was performed as 384-well HTRF® (Cisbio, Codolet, France) assay format in Greiner low volume nb 384-well microtiter plates. 35 nM His-tagged Parp-1 (human, recombinant, Enzo Life Sciences GmbH, Lörrach, Germany) and a mixture of 125 nM bio-NAD (Biolog, Life science Inst., Bremen, Germany) and 800 nM NAD as co-substrate were incubated in a total volume of 6 μl (100 mM Tris/HCl, 4 mM Mg-chloride, 0.01% IGEPAL® CA630, 1 mM DTT, 0.5% DMSO, pH 8, 13 ng/μl activated DNA (BPS Bioscience, San Diego, US)) in the absence or presence of the test compound (10 dilution concentrations) for 150 min at 23° C. The reaction was stopped by the addition of 4 μl of the Stop/detection solution (70 nM SA-Xlent® (Cisbio, Codolet, France), 2.5 nM Anti-His-K® (Eu-labelled anti-His, Cisbio, Codolet, France) in 50 mM HEPES, 400 mM KF, 0.1% BSA, 20 mM EDTA, pH 7.0). After 1 h incubation at room temperature the HTRF was measured with an Envision multimode reader (Perkin Elmer LAS Germany GmbH) at excitation wavelength 340 nm (laser mode) and emission wavelengths 615 nm and 665 nm. The ratio of the emission signals was determined. The full value used was the inhibitor-free reaction. The pharmacological zero value used was Olaparib (LClabs, Woburn, US) in a final concentration of 1 μM. The inhibitory values (IC50) were determined using either the program Symyx Assay Explorer® or Condosseo® from GeneData.
(TR-FRET usually uses a lanthanide donor and a delayed reading to cut background.)

T1 sequence (O95271 1023-1327): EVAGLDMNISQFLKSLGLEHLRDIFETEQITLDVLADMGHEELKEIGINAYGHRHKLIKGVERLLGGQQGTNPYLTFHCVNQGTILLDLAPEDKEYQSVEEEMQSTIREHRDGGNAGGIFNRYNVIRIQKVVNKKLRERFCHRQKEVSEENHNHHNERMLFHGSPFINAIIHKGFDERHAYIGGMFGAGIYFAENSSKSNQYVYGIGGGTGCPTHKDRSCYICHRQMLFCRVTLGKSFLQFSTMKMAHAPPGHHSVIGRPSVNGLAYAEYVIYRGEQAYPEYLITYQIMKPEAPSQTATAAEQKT
T3 sequence (O95271 1023-1327): as above
T5 sequence (P09874 whole entry): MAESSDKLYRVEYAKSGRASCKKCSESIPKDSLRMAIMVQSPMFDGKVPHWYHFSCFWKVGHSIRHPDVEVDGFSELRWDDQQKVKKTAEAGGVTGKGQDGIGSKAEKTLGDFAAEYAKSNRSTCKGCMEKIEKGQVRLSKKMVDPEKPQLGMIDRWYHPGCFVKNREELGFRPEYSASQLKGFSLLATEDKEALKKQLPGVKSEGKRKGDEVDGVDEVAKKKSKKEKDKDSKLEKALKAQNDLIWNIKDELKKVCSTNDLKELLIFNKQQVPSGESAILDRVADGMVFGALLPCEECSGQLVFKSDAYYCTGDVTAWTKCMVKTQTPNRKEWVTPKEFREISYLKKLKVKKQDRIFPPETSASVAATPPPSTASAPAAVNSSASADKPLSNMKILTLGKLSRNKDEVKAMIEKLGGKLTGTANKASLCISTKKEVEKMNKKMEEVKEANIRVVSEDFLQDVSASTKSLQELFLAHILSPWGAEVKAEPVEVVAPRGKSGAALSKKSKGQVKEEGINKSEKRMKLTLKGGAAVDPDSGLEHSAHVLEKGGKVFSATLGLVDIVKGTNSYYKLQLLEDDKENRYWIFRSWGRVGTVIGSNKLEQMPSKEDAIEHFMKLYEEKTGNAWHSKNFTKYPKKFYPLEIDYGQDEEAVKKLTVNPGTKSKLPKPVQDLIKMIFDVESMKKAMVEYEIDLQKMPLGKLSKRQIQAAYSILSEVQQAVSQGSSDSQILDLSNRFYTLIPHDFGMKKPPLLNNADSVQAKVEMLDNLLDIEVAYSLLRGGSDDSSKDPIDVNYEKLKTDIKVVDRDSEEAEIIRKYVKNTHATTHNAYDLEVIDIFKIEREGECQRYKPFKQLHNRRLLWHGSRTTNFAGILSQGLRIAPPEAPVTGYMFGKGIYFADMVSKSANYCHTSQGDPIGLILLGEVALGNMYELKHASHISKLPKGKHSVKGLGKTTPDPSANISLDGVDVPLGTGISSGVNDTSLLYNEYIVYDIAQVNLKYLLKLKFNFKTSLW
T4 sequence (Q9H2K2 873-1166): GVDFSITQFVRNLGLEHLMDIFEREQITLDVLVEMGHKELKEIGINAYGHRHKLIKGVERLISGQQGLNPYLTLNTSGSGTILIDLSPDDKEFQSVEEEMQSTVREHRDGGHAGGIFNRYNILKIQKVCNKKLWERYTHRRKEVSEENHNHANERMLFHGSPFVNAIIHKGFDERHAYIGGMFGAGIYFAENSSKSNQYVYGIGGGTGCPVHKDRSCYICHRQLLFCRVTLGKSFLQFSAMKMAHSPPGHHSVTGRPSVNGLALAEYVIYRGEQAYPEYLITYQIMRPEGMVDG
T2 sequence (Q9H2K2 873-1166): as above

As to `Oc1nc(-c2ccc(C(F)(F)F)cc2)nc2c1CSCC2` [XAV939], in assay [1], the “growth of DLD-1-cancer cells” value is given as “inhibits growth”.

For `NC(=O)c1ccccc1N1CCN(c2nc3c(c(=O)[nH]2)CCCC3)CC1` [Compound A34, 2-[4-(4-oxo-5,6,7,8-tetrahydro-3H-quinazolin-2-yl)piperazin-1-yl]benzamide], the IC50 (commonly the concentration needed to halve the response being measured) in assay [2] was under 300 nM; in assay [3] it was 300 to 3000 nM; in assay [4], under 300 nM; in assay [5], under 300 nM; in assay [6], under 300 nM.

Values taken from patent publication US9339503B2, “Tetrahydro-quinazolinone derivatives as TANK and PARP inhibitors” (MERCK PATENT GMBH, priority 2012, dated 2016).
